Reference: article PMC4117522, “Proteasome Inhibitors Alter Levels of Intracellular Peptides in HEK293T and SH-SY5Y Cells” (PLoS ONE, 2014)
Read-outs that look alike come from different tables or passages of the source.

Columns and labels:
[1] = target: T1, Blm10-activated 20S core particle (Saccharomyces cerevisiae, UniProt P23724+P30656); test: Chymotryptic-like activity of purified yeast Blm10-20S (Suc-Leu-Leu-Val-Tyr-AMC); assay type: biochemical; conditions: in the absence of ATP
T1 construct: various proteasome forms purified from yeast; made in house; host or cells: yeast
Procedure: (§1) Proteasome activity was quantified by measuring the kinetics of fluorescence release (380 nm excitation, 460 nm emission). Fluorescence was measured at an interval of 30 seconds for 30 minutes with 5 seconds of mixing prior to each cycle. Proteasomes were purified as described previously, [35].
(§2) After incubation for 15 minutes, enzyme activity was measured by monitoring the fluorescence kinetics for the next 30 minutes. […] Enzyme activity is expressed as percent control without inhibitor. Error bars show standard error of the mean; error bars smaller than symbol size are not visible.

[2] = test system: HEK293T cell aminopeptidase activity (Leu-AMC cleavage); test: Aminopeptidase assay with Leu-AMC in HEK293T cell extracts; assay type: biochemical, human; conditions: HEK293T cell extract, 10 µM inhibitor
Procedure: (§3) All enzyme assays described below were performed in the linear range of the assay, as determined from time-course studies. HEK293T cells were lysed by sonication in 50 mM TrisHCl buffer, pH 7.5, containing 40 mM KCl, 5 mM MgCl2, 0.5 mM ATP, and 1 mM DTT (Buffer 1).
(§4) To measure TPP2, the fluorescent substrate was Ala-Ala-Phe-AMC. Aminopeptidase (AP) assays were performed with Leu-AMC and Ala-AMC, which detect leucine aminopeptidase (LAP), puromycin-sensitive aminopeptidase (PSAP), and other enzymes. To measure the effect of aminopeptidase/proteasome inhibitors on cleavage of Ala-Ala-Phe-AMC and Leu-AMC, 1∶50 dilution of the cell extract was pre-incubated with the inhibitor and Buffer 1 for 30 min, followed by addition of 100 µM final concentration of the respective substrate. For Ala-AMC, the same dilution of the cell extract was pre-incubated with the inhibitor and 50 mM MOPS buffer, pH 7.5, containing 40 mM KCl, 5 mM MgCl2, 0.5 mM ATP, and 1 mM DTT (Buffer 2), followed by addition of 100 µM final concentration of the substrate. After incubation at 37°C for 1 hour, enzyme activity was quantified by fluorescence measurement of the substrate (380 nm excitation, 460 nm emission).
(§5) Figure 7 Effect of aminopeptidase inhibitors on Ala-AMC and Leu-AMC cleavage. HEK 293T cell extract (panels A–D) or recombinant PSAP (panels E–F) were treated with increasing concentrations of bestatin or puromycin for 30 minutes followed by the addition of substrate and incubation for 1 hour. Enzyme activity was determined by fluorescence measurement of AMC and expressed as percentage enzyme activity relative to the control without inhibitor. (A) Bestatin inhibition of HEK293T cell extract assayed with Ala-AMC. (B) Bestatin inhibition of HEK293T cell extract assayed with Leu-AMC. (C) Puromycin inhibition of HEK293T cell extract assayed with Ala-AMC. (D) Puromycin inhibition of HEK293T cell extract assayed with Leu-AMC. (E) Puromycin inhibition of purified PSAP assayed with Ala-AMC. (F) Puromycin inhibition of purified PSAP assayed with Leu-AMC. Error bars show standard error of mean (n = 4), points without error bars had error ranges smaller than the symbol size. Statistical analysis was performed using Student’s t-test: *, p≤0.05; **, p≤0.01; ***, p≤0.001; ns, no significant difference (p>0.05) versus the control.
(§6) Figure 8 Effect of proteasome inhibitors on Ala-AMC and Leu-AMC cleavage. HEK 293T cell extract or recombinant PSAP was treated with 10 µM of each of the proteasome inhibitors for 1 hour in addition to a 30 min pre-incubation without the substrate. Enzyme activity was determined by fluorescence measurement of AMC and expressed as percentage enzyme activity relative to the control without inhibitor. Panels A and B represent the effect of proteasome inhibitors on cleavage of Ala-AMC and Leu-AMC respectively, in HEK293T cell extract. […] Error bars show standard error of mean (n = 4). Statistical analysis was performed using Student’s t-test: *, p≤0.05; **, p≤0.01; ***, p≤0.001; ns, no significant difference (p>0.05) versus the control.

[3] = test system: HEK293T cell aminopeptidase activity (Ala-AMC cleavage); test: Aminopeptidase assay with Ala-AMC in HEK293T cell extracts; assay type: biochemical, human; conditions: HEK293T cell extract; for Enzyme activity (% control with no inhibitor): Ala-AMC
Procedure: as §3, §4, §5, §6

HEK293T cells [4] = conditions: HEK293T cells; cited from earlier work
[5] = test system: open gate mutant of the 20S core particle; test: Chymotryptic-like activity of open gate mutant of yeast 20S (Suc-Leu-Leu-Val-Tyr-AMC); assay type: biochemical; conditions: in the absence of ATP
Procedure: as §1, §2

[6] = target: T2, recombinant human puromycin-sensitive aminopeptidase (PSAP, rhNPEPPS) (Homo sapiens, UniProt P55786); test: Cleavage of Leu-AMC and Ala-AMC by purified recombinant PSAP; assay type: biochemical; conditions: 10 µM inhibitor, Ala-AMC
T2 construct: purchased R&D Systems
T2 sequence (P55786 whole entry): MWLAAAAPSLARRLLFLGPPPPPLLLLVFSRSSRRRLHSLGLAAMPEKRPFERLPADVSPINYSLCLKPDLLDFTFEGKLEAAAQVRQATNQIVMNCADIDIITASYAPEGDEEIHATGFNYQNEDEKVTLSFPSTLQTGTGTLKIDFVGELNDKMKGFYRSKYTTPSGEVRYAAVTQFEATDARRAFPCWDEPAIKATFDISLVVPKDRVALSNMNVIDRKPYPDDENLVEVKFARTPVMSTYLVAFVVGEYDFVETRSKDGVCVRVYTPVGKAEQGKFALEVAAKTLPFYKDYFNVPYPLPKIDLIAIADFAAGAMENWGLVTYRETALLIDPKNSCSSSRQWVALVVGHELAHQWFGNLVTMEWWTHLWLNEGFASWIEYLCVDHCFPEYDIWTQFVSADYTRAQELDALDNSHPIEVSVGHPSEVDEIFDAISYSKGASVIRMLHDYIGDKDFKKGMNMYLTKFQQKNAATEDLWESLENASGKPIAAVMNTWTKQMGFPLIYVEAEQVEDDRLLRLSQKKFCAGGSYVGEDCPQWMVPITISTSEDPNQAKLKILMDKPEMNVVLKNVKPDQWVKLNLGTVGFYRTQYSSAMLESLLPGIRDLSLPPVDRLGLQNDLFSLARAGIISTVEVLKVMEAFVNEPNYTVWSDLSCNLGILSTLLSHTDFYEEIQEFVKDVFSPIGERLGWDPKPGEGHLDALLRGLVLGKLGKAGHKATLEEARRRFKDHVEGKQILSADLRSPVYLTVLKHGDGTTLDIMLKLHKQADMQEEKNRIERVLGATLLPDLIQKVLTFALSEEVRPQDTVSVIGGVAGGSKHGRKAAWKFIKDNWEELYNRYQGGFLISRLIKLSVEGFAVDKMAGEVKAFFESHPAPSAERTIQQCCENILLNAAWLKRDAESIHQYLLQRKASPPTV
Procedure: To measure the effect of inhibitors on cleavage of Leu-AMC and Ala-AMC by purified PSAP, recombinant human PSAP (rhNPEPPS, R&D Systems) was diluted 1∶2000 in Buffer 2 containing 0.1 mg/ml BSA. The enzyme was pre-incubated with the inhibitor and Buffers 1 or 2, followed by addition of 100 µM final concentration of Leu-AMC (to the mix containing Buffer 1) and Ala-AMC (to the mix containing Buffer 2). After incubation at 37°C for 1 hour, PSAP activity was quantified by fluorescence measurement of the substrate (380 nm excitation, 460 nm emission).
as §5, §6

[7] = test system: tripeptidyl peptidase 2 (TPP2); test: Ala-Ala-Phe-AMC cleavage (TPP2 substrate) in HEK293T cell extracts; assay type: biochemical, human; conditions: HEK293T cell extract
Procedure: as §3, §4
Enzyme activity was determined by fluorescence measurement of AMC and expressed as percentage enzyme activity relative to the control lacking inhibitor. […]

[8] = target: T3, 20S proteasome core particle (Saccharomyces cerevisiae, UniProt P23724+P30656); test: Chymotryptic-like activity of purified yeast 20S core particle (Suc-Leu-Leu-Val-Tyr-AMC); assay type: biochemical
T3 construct: various proteasome forms purified from yeast; made in house; host or cells: yeast
Procedure: as §1, §2

26S proteasome = 26S proteasome (Saccharomyces cerevisiae, UniProt P23724+P30656); test: Chymotryptic-like activity of purified yeast 26S proteasome (Suc-Leu-Leu-Val-Tyr-AMC); assay type: biochemical; conditions: in the presence of ATP
Procedure: as §1, §2

SH-SY5Y cells = conditions: cited from earlier work
HEK293T cells [9] = test: Quantitative peptidomics (TMAB isotopic labels, LC-MS/MS) of inhibitor-treated HEK293T cells; assay type: cell-based, human; conditions: HEK293T cells; 100 µM bestatin methyl ester 75 min; 100 µM butabindide 35 or 75 min; bestatin
Procedure: HEK293T and SH-SY5Y cells were grown to 80–90% confluence in DMEM and RPMI supplemented with 10% fetal bovine serum and penicillin/streptomycin. A single plate of cells (150 mm×25 mm) was used for each group. At the start of the experiment, media were removed from the plates and cells were washed with DPBS (138 mM NaCl, 8.06 mM Na2HPO4, 2.67 mM KCl, 1.47 mM KH2PO4, 0.9 mM CaCl2 and 0.49 mM MgCl2). This was followed by addition of serum-free media containing the proteasome or aminopeptidase inhibitors, or 0.05% DMSO as a control for the inhibitors that were soluble in DMSO. Each experiment consisted of two control groups and two or three replicate groups of cells treated with one of the inhibitors. The cells were incubated at 37°C for 20 minutes, following which media containing the inhibitor was removed, cells were washed with DPBS, detached from the plate by scraping into DPBS (without trypsin), and centrifuged at 800×g for 5 min. The wash buffer was supplemented with the appropriate inhibitor at the same concentration as used for the treatment, thereby ensuring that the changes induced in peptide levels were not reversed during harvesting of cells due to possible dissociation of the reversible inhibitors. The wash time (including centrifugation) was 15 minutes, for a total treatment time of 35 minutes. After centrifugation, the cell pellet was resuspended in 1 ml of 80°C water and incubated in an 80°C water bath for 20 minutes to inactivate proteases. The mixture was again centrifuged (13,000×g, 30 min, 4°C) and was stored at −80°C overnight. For peptide extraction, the samples were thawed and centrifuged again. The lysate was subsequently cooled on ice and acidified with HCl to a final concentration of 10 mM. After 15 min incubation on ice, the lysate was centrifuged at 13,000×g for 30 min at 4°C. To the supernatant, 250 µL of dibasic sodium phosphate (0.4 M, pH 9.5) was added and the mixture was stored at −80°C until labeling.
The labeling protocol has been earlier described in detail. Each group within an experiment (control/treated) was labeled with a different isotopic tag. The TMAB-NHS labels were dissolved in DMSO to a concentration of 400 µg/µL and 15 mg of label was used per 150 mm plate of cells. […] At the beginning, the pH of the peptide extract was adjusted to 9.5 with 1 M NaOH. Labeling was performed over 8 rounds; 4.69 µL of the label was added to the extract every 20 min. The pH was measured between each round and if necessary, brought back to 9.5 for the first five rounds. For rounds 6–8, the pH was not adjusted after the addition of the TMAB-NHS reagent. After the final round of label addition, the pH was adjusted to 9.5 again and the extracts were incubated at room temperature for 90 min. Thereafter, 30 µL of 2.5 M glycine was added to quench any unreacted label. Following 40 min incubation at room temperature, the labeled extracts for a single experiment were pooled and filtered through Amicon Ultracel-10 K units. It is important to ensure that only N-terminal amines and lysine side-chain amines of peptides are TMAB-labeled and not tyrosines. To hydrolyze any labeled tyrosine, 30 µL of a 2 M solution of hydroxylamine hydrochloride (pH 3.7) was added over three rounds to the pooled and filtered sample. The pH was measured after the addition of hydroxylamine and adjusted to 9.0 with 1 M NaOH. The samples were desalted through PepClean C-18 spin columns (Thermo Scientific, Rockford, IL, USA) by following manufacturer’s instructions. Peptides were eluted using 160 µL of 0.5% TFA and 70% acetonitrile, frozen at −80°C and then lyophilized in a vacuum centrifuge and stored at −80°C until analysis by mass spectrometry.
The LC-MS/MS experiments were performed on a Synapt G2 mass spectrometer coupled to a NanoAcquity capillary liquid chromatography system (Waters Co., Milford, MA, USA).

Row | SMILES | inhibition of chymotryptic-like activity, compared among 20S forms [1] | effect on cleavage of Leu-AMC [2] | effect on cleavage of Ala-AMC ([3]; 10 µM inhibitor) | Enzyme activity (% control with no inhibitor) ([3]; bestatin 50 µM together with bortezomib 10 µM) | Enzyme activity (% control with no inhibitor) ([3]; bestatin 50 µM together with bortezomib 50 µM) | change in levels of intracellular peptides (peptidome) (HEK293T cells [4]) | inhibition of chymotryptic-like activity, compared among 20S forms [5] | effect on cleavage of Ala-AMC by purified PSAP [6] | inhibition of Ala-Ala-Phe-AMC cleavage ([7]; up to 5 µM) | inhibition of chymotryptic-like activity, compared among 20S forms ([8]; in the absence of ATP) | inhibition of chymotryptic-like activity, 20S compared with 26S ([8]; in the presence of ATP) | inhibition of chymotryptic-like activity, 26S compared with 20S (26S proteasome) | change in levels of intracellular peptides (peptidome) (SH-SY5Y cells) | change in levels of intracellular peptides (peptidome) (HEK293T cells [9]) | inhibition of Ala-Ala-Phe-AMC cleavage ([7]; micromolar concentrations)
1 | CC(C)C[C@H](NC(=O)[C@H](Cc1ccccc1)NC(=O)c1cnccn1)B(O)O [bortezomib] | comparable potency | partially inhibited | partially inhibited | 14.8±0.6 % control with no inhibitor | 14.8±0.8 % control with no inhibitor | increase in the levels of most intracellular peptides | comparable potency | no significant effect | did not show significant inhibition | comparable potency | comparable inhibition | comparable inhibition | increase in the levels of most intracellular peptides |  | 
2 | CCCCNC(=O)[C@@H]1Cc2ccccc2N1C(=O)[C@@H](N)CC [butabindide, reference compound] |  |  |  |  |  |  |  |  |  |  |  |  |  | failed to substantially alter the peptide levels | Approximately 50%
